Data taken from US8383639B2, “HIV integrase inhibitors” (priority 2009, dated 2013).

These compounds were tested on recombinant NL-Rluc virus (assay: Inhibition of HIV replication (NL-RLuc pseudotype virus, luciferase)). Conditions: Human immunodeficiency virus 1, read-out: Activity (EC50).
Type: cell-based

| Compound | EC50 |
| --- | --- |
| CC1(C)OCCn2c1nc(-c1ncc(Cc3ccc(F)cc3)[nH]1)c(O)c2=O [Example 1, 2-(5-(4-Fluorobenzyl)-1H-imidazol-2-yl)-3-hydroxy-9,9-dimethyl-6,7-dihydropyrimido[2,1-c][1,4]oxazin-4(9H)-one] | 7 nM |
| Cn1c(Cc2ccc(F)cc2)cnc1-c1nc2n(c(=O)c1O)CCOC2(C)C [Example 2, 2-(5-(4-Fluorobenzyl)-1-methyl-1H-imidazol-2-yl)-3-hydroxy-9,9-dimethyl-6,7-dihydropyrimido[2,1-c][1,4]oxazin-4(9H)-one] | 10 nM |
| CC1(C)OCCn2c1nc(-c1cn(Cc3ccc(F)cc3)cn1)c(O)c2=O [Example 3, 2-(1-(4-Fluorobenzyl)-1H-imidazol-4-yl)-3-hydroxy-9,9-dimethyl-6,7-dihydropyrimido[2,1-c][1,4]oxazin-4(9H)-one] | 5 nM |
| CC1(C)OCCn2c1nc(-c1nnc(Cc3ccc(F)cc3)[nH]1)c(O)c2=O [Example 4, 2-(5-(4-Fluorobenzyl)-4H-1,2,4-triazol-3-yl)-3-hydroxy-9,9-dimethyl-6,7-dihydropyrimido[2,1-c][1,4]oxazin-4(9H)-one] | 51 nM |
| CC1(C)OCCn2c1nc(-c1ncn(Cc3ccc(F)cc3)n1)c(O)c2=O [Example 5, 2-(1-(4-Fluorobenzyl)-1H-1,2,4-triazol-3-yl)-3-hydroxy-9,9-dimethyl-6,7-dihydropyrimido[2,1-c][1,4]oxazin-4(9H)-one] | 7 nM |
| Cn1c(Cc2ccc(F)cc2)nnc1-c1nc2n(c(=O)c1O)CCOC2(C)C [Example 6, 2-(5-(4-Fluorobenzyl)-4-methyl-4H-1,2,4-triazol-3-yl)-3-hydroxy-9,9-dimethyl-6,7-dihydropyrimido[2,1-c][1,4]oxazin-4(9H)-one] | 141 nM |
| CCOc1nc(-c2nc(Cc3ccc(F)cc3)no2)c(O)c(=O)n1C [Example 7, 2-Ethoxy-6-(3-(4-fluorobenzyl)-1,2,4-oxadiazol-5-yl)-5-hydroxy-3-methylpyrimidin-4(3H)-one] | 31000 nM |
| Cn1c(C2CCCC2)nc(-c2nc(Cc3ccc(F)cc3)no2)c(O)c1=O [Example 9, 2-Cyclopentyl-6-(3-(4-fluorobenzyl)-1,2,4-oxadiazol-5-yl)-5-hydroxy-3-methylpyrimidin-4(3H)-one] | 22000 nM |
| CC1(C)OCCn2c1nc(-c1ncc(Cc3ccc(F)cc3)s1)c(O)c2=O [Example 11, 2-(5-(4-Fluorobenzyl)thiazol-2-yl)-3-hydroxy-9,9-dimethyl-6,7-dihydropyrimido[2,1-c][1,4]oxazin-4(9H)-one] | 14 nM |
| CC1(C)OCCn2c1nc(-c1nnc(Cc3ccc(F)cc3)o1)c(O)c2=O [Example 12, 2-(5-(4-Fluorobenzyl)-1,3,4-oxadiazol-2-yl)-3-hydroxy-9,9-dimethyl-6,7-dihydropyrimido[2,1-c][1,4]oxazin-4(9H)-one] | 8 nM |
